In US5382670A, “Platelet activating factor antagonists” (priority 1993, dated 1995):
pKi: −log10 of the molar value. Structures can show the parent of a compound that is named as a salt.

The compounds below were run against PAF receptor (Oryctolagus cuniculus, UniProt G1TEI7) (assay: PAF receptor binding assay: inhibition of specific [3H]C18-PAF binding to rabbit platelet membranes). Conditions: 0.6 nM [3H]C18-PAF, 60 min, 22-23 °C, Ki from IC50 (Cheng and Prusoff), read-out: Ki (PAF Receptor Binding Activity).
Chain of PAF receptor (G1TEI7 1-342): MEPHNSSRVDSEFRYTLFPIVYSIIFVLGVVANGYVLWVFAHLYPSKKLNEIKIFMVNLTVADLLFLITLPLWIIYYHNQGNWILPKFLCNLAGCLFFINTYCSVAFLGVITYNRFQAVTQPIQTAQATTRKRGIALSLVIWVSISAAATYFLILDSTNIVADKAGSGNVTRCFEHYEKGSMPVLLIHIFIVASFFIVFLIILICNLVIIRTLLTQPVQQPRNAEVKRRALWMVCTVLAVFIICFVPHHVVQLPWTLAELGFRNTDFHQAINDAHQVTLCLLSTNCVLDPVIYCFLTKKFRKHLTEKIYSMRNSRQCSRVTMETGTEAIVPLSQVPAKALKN
Procedure: The ability of representative compounds of the present invention to inhibit PAF activity was determined in an in vitro test using the following method.
Citrated whole rabbit blood was obtained from Pel-Freez (Rogers, AR). Rabbit platelets were prepared by centrifugation and washing. The platelets were lysed by freeze-thawing and sonication; platelet membranes were prepared by centrifugation and washing. Final membrane preparations were stored frozen in 10 mM Tris/5 mM MgCl2 /2 mM EDTA (TME buffer, pH 7.0) with 0.25M sucrose added for membrane stabilization.
The standard PAF receptor binding assay contained 10 μg platelet membrane protein, 0.6 nM [^3 H]C18 -PAF (from Amersham or New England Nuclear; specific activity 120-180 Ci/mmol), with and without test compound, in "binding buffer" consisting of TME with 0.25% bovine serum albumin added (Sigma, RIA grade). The final volume of the assay was 100 μl. The assay was conducted in Millititre-GV™ (Millipore Corp.) filtration plates; incubation time was for 60 minutes at room temperature (22°-23° C.). "Specific binding" was operationally defined as the arithmetic difference between "total binding" of 0.6 nM [^3 H]C18 -PAF (in the abasence of added PAF) and "nonspecific binding" (in the presence of 1 μM PAF). After the prescribed incubation, platelet membranes were filtered under vacuum, and washed with 1 milliliter of "binding buffer". The filters were dried and removed. The bound radioactivity was quantitated with a Berthold TLC-Linear Analyzer model LB2842.
Dose-response curves of inhibition of specific [^3 H]C18 -PAF binding by test compounds were conducted in triplicate, with at least four doses covering the active range. Experiments were repeated at least once. IC50 values (concentration producing 50% inhibition) were determined by point-to-point evaluation. Ki values of inhibitory binding constants were calculated according to the method of Cheng and Prusoff [Biochem. Pharmacol. 22 (1973) 3099-3108] whereby [formula]
The values of Ki for representative compounds of the present invention appear in Table 1.
Compound “1-ethoxycarbonyl-3-[2-(3-pyridinyl)thiazolid-4-oyl]indole oxalate [Example 41]” has a pKi of 8.40. In the case of `CC(C)(C)OC(=O)n1cc(C(=O)[C@@H]2CS[C@H](c3cccnc3)S2)c2ccccc21` (relative stereo) [Example 29, cis-1-tert-butoxycarbonyl-3-[2-(3-pyridinyl)dithiolan-4-oyl]indole hydrochloride], the pKi was 6.74. For `CC(C)(C)OC(=O)n1cc(C(=O)[C@@H]2CS[C@@H](c3cccnc3)S2)c2ccccc21` (relative stereo) [Example 30, trans 1-tert-butoxycarbonyl-3-[2-(3-pyridinyl)dithiolan-4-oyl]indole oxalate], the pKi was 6.05. Compound `CN(C)C(=O)n1cc(C(=O)[C@@H]2CS[C@H](c3cccnc3)N2C=O)c2ccccc21` (relative stereo) [Example 97, cis-1-Dimethylcarbamoyl-3-[2-(3-pyridinyl)-3-formylthiazolid-4-oyl]indole] has a pKi of 6.82. Compound `CN(C)C(=O)n1cc(C(=O)[C@@H]2CS[C@H](c3cccnc3)N2C(=O)C(F)(F)F)c2ccccc21` (relative stereo) [Example 104, cis-1-dimethylcarbamoyl-3-[2-(3-pyridinyl)-3-trifluoroacetylthiazolid-4-oyl]indole] has a pKi of 6.19. `CN(C)C(=O)n1cc(C(=O)[C@@H]2CS[C@H](c3cccnc3)N2C(=O)C(F)(F)F)c2ccccc21` (relative stereo) [Example 105, cis-1-dimethylcarbamoyl-3-[2-(3-pyridinyl)-3-trifluoroacetylthiazolid-4-oyl]indole oxalate] showed a pKi of 6.76. In the case of `CN(C)C(=O)n1cc(C(=O)[C@@H]2CS[C@@H](c3cccnc3)N2C(=O)C(F)(F)F)c2ccccc21` (relative stereo) [Example 106, trans-1-dimethylcarbamoyl-3-[2-(3-pyridinyl)-3-trifluoroacetylthiazolid-4-oyl]indole], the pKi was 7.10. For `CN(C)C(=O)n1cc(C(=O)[C@@H]2CS[C@@H](c3cccnc3)N2C(=O)C(F)(F)F)c2ccccc21` (relative stereo) [Example 107, trans-1-dimethylcarbamoyl 1-34 2-(3-pyridinyl)-3-trifluoroacetylthiazolid-4-oyl]indole oxalate], the pKi was 7.12. In the case of `O=C(c1c[nH]c2ccccc12)C1CSC(c2cccnc2)N1C(=O)C(F)(F)F` (single isomer, unassigned; isomer 1) [Example 102, 3-[2-(3-pyridinyl)-3-trifluoroacetylthiazolid-4-oyl]indole,isomer 1], the pKi was 5.57. With `CN(C)C(=O)n1cc(C(=O)C2CSC(c3cccnc3)N2C(=O)C(F)(F)F)c2ccc(OCc3ccccc3)cc21` (single isomer, unassigned; isomer 1) [Example 108, 1-dimethylcarbamoyl-3-[2-(3-pyridinyl)-3-trifluoroacetylthiazolid-4-oyl]-6-phenylmethoxyindole, isomer 1] the pKi was 6.60. `O=C(c1c[nH]c2ccccc12)C1CSC(c2cccnc2)N1C(=O)C(F)(F)F` (single isomer, unassigned; isomer 2) [Example 103, 3-[2-(3-pyridinyl)-3-trifluoroacetylthiazolid-4-oyl]indole, isomer 2] was tested, and the pKi was 5.55. `CN(C)C(=O)n1cc(C(=O)C2CSC(c3cccnc3)N2C(=O)C(F)(F)F)c2ccc(OCc3ccccc3)cc21` (single isomer, unassigned; isomer 2) [Example 109, 1-dimethylcarbamoyl-3-[2-[3-pyridinyl)-3-trifluoroacetylthiazolid-4-oyl]-6-phenylmethoxyindole, isomer 2] showed a pKi of 7.15. Compound `O=C(C1CSC(c2cccnc2)N1)n1ccc2cc(OCc3ccccc3)ccc21` (stereo not shown) [Example 1, 1-[2-(3-pyridinyl)thiazolid-4-oyl]-5-phenylmethoxyindole] has a pKi of 8.15. In the case of `O=C(C1CSC(c2cccnc2)N1)n1ccc2c(Cl)cccc21` (stereo not shown) [Example 5, 1-[2-(3-pyridinyl)thiazolid-4-oyl]-4-chloroindole dihydrochloride], the pKi was 7.48. Compound `O=C(c1ccccc1)c1cccc2c1ccn2C(=O)C1CSC(c2cccnc2)N1` (stereo not shown) [Example 7, 1-[2-(3-pyridinyl)thiazolid-4-oyl]-4-benzoylindole dihydrochloride] has a pKi of 7.92. `COc1cc(C(=O)c2cccc3c2ccn3C(=O)C2CSC(c3cccnc3)N2)cc(OC)c1OC` (stereo not shown) [Example 8, 1-[2-(3-pyridinyl)thiazolid-4-oyl]-4-(3,4,5-trimethoxybenzoyl)indole] gave a pKi of 8.40. `O=C(C1CSC(c2cccnc2)N1)n1ccc2cc(OCc3ccccc3)ccc21` (stereo not shown) [Example 11, 1-(2-(3-pyridinyl)thiazolid-4-oyl)-5-phenylmethoxyindole dihydrochloride] gave a pKi of 7.82. Work on `O=C(c1ccccc1)c1ccc2ccn(C(=O)C3CSC(c4cccnc4)N3)c2c1` (stereo not shown) [Example 17, 1-[2-(3-pyridinyl)thiazolid-4-oyl]-6-benzoylindole] yielded a pKi of 7.03. `O=C(C1CSC(c2cccnc2)N1)n1ccc2ccc(OCc3ccccc3)cc21` (stereo not shown) [Example 18, 1-(2-(3-pyridinyl)thiazolid-4-oyl)-6-phenylmethoxyindole oxalate] showed a pKi of 7.28. In the case of `Cc1c(C(=O)C2CSC(c3cccnc3)N2)c2ccccc2n1C` (stereo not shown) [Example 21, 1.2-dimethyl-3-[2-(3-pyridinyl)thiazolid-4-oyl]indole oxalate], the pKi was 6.98. Work on `O=C(c1c[nH]c2ccc(OCc3ccccc3)cc12)C1CSC(c2cccnc2)N1` (stereo not shown) [Example 23, 3-(2-(3-pyridinyl)thiazolid-4-oyl])-5-phenylmethoxyindole oxalate] yielded a pKi of 7.64.

Same assay, conditions: Ki (PAF Receptor Binding Activity), 0.6 nM [3H]C18-PAF, 60 min, 22-23 °C, Ki from IC50 (Cheng and Prusoff)
In the case of `Cc1ccc2c(c1)cc(C)n2C(=O)C1CSC(c2cccnc2)N1` (stereo not shown) [Example 4, 1-[2-(3-pyridinyl)thiazolid-4-oyl]-2,5-dimethylindole], the pKi was 7.34. Work on `O=C(C1CSC(c2cccnc2)N1)n1ccc2c(Br)cccc21` (stereo not shown) [Example 6, 1-[2-(3-pyridinyl)thiazolid-4-oyl]-4-bromoindole dihydrochloride] yielded a pKi of 7.28. Work on `O=C(C1CSC(c2cccnc2)N1)n1ccc2cc(Cl)ccc21` (stereo not shown) [Example 9, 1-[2-(3-pyridinyl)thiazolid-4-oyl]-5-chloroindole dihydrochloride] yielded a pKi of 6.85. In the case of `N#Cc1ccc2c(ccn2C(=O)C2CSC(c3cccnc3)N2)c1` (stereo not shown) [Example 10, 1-[2-(3-pyridinyl)thiazolid-4-oyl]-5-cyanoindole dihydrochloride], the pKi was 5.68. With `COc1cc2ccn(C(=O)C3CSC(c4cccnc4)N3)c2cc1OC` (stereo not shown) [Example 13, 1-[2-(3-pyridinyl)thiazolid-4-oyl]-5,6-dimethoxyindole dihydrochloride] the pKi was 5.62. `O=C(C1CSC(c2cccnc2)N1)n1ccc2ccc(F)cc21` (stereo not shown) [Example 14, 1-[2-(3-pyridinyl)thiazolid-4-oyl]-6-fluoroindole] gave a pKi of 7.17. `O=C(C1CSC(c2cccnc2)N1)n1ccc2ccc(Br)cc21` (stereo not shown) [Example 16, 1-[2-(3-pyridinyl)thiazolid-4-oyl]-6-bromoindole] showed a pKi of 7.60. For `O=C(C1CSC(c2cccnc2)N1)n1ccc2cccnc21` (stereo not shown) [Example 19, 1-[2-(3-pyridinyl)thiazolid-4-oyl]-7-azaindole], the pKi was 4.90. Work on `O=C(c1c[nH]c2ccccc12)C1CSC(c2cccnc2)N1` (stereo not shown) [Example 20, 3-[2-(3-pyridinyl)thiazolid-4-oyl]indole oxalate] yielded a pKi of 8.40. `Cn1cc(C(=O)C2CSC(c3cccnc3)N2)c2ccccc21` (stereo not shown) [Example 22, 1-methyl-3-[2-3-pyridinyl)thiazolid-4-oyl]indole dihydrochloride] gave a pKi of 7.89.
